According to ChEMBL document CHEMBL1201862, “PubChem BioAssay data set” (2004):
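Compound exposure: 48 hours, 5 concentrations, 96-well plates. At the GI50, growth is halved.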 The source made the active and inactive calls. Cut-off read from the data, not from the text of the source: active = GI50 up to about 1.1 µM and inactive = higher.

Experiments:
Test in all cases: growth of human tumour cells (NCI), 48 h
HOP-62 = test system: HOP-62
SK-MEL-28 = test system: SK-MEL-28
TK-10 = test system: TK-10
HCC 2998 = test system: HCC 2998
DU-145 = test system: DU-145
UACC-257 = test system: UACC-257
SF-539 = test system: SF-539
HCT-15 = test system: HCT-15
SF-295 = test system: SF-295
RPMI-8226 = test system: RPMI-8226
K562 = test system: K562
U-251 = test system: U-251
SW-620 = test system: SW-620
OVCAR-8 = test system: OVCAR-8
SNB-19 = test system: SNB-19
NCI-H522 = test system: NCI-H522
PC-3 = test system: PC-3
COLO 205 = test system: COLO 205
UO-31 = test system: UO-31
IGROV-1 = test system: IGROV-1
CCRF-CEM = test system: CCRF-CEM
HT-29 = test system: HT-29
A549 = test system: A549
MDA-MB-435 = test system: MDA-MB-435
UACC-62 = test system: UACC-62
BT-549 = test system: BT-549
ACHN = test system: ACHN
OVCAR-3 = test system: OVCAR-3
KM12 = test system: KM12
SK-MEL-2 = test system: SK-MEL-2
SR = test system: SR
Hs-578T = test system: Hs-578T
NCI-H226 = test system: NCI-H226
T47D = test system: T47D
SK-MEL-5 = test system: SK-MEL-5
786-0 = test system: 786-0
NCI-H23 = test system: NCI-H23
HL-60 = test system: HL-60
MDA-MB-231 = test system: MDA-MB-231
LOX IMVI = test system: LOX IMVI
MCF7 = test system: MCF7
EKVX = test system: EKVX
OVCAR-4 = test system: OVCAR-4
RXF 393 = test system: RXF 393
CAKI-1 = test system: CAKI-1
SK-OV-3 = test system: SK-OV-3
SNB-75 = test system: SNB-75
M14 = test system: M14
A498 = test system: A498
NCI-H460 = test system: NCI-H460
NCI/ADR-RES = test system: NCI/ADR-RES
SN12C = test system: SN12C
SF-268 = test system: SF-268
Malme-3M = test system: Malme-3M
HOP-92 = test system: HOP-92
OVCAR-5 = test system: OVCAR-5
HCT-116 = test system: HCT-116
MOLT-4 = test system: MOLT-4

## CN(C)CCNCCCNc1c2ccccc2nc2cccc([N+](=O)[O-])c12
HOP-62
  GI50: 0.0288 µM (active)
SK-MEL-28
  GI50: 0.188 µM (active)
TK-10
  GI50: 0.046 µM (active)
HCC 2998
  GI50: < 0.0126 µM (active)
DU-145
  GI50: < 0.0159 µM (active)
UACC-257
  GI50: 0.22 µM (active)
SF-539
  GI50: 0.0676 µM (active)
HCT-15
  GI50: 0.0826 µM
SF-295
  GI50: < 0.0163 µM (active)
RPMI-8226
  GI50: < 0.0138 µM (active)
K562
  GI50: < 0.0119 µM (active)
U-251
  GI50: < 0.0175 µM (active)
SW-620
  GI50: < 0.0144 µM (active)
OVCAR-8
  GI50: < 0.0146 µM (active)
SNB-19
  GI50: 0.0298 µM (active)
NCI-H522
  GI50: < 0.01 µM (active)
PC-3
  GI50: < 0.0171 µM (active)
COLO 205
  GI50: < 0.0141 µM (active)
UO-31
  GI50: 0.0741 µM (active)
IGROV-1
  GI50: < 0.0205 µM (active)
CCRF-CEM
  GI50: < 0.0121 µM (active)
HT-29
  GI50: < 0.0125 µM (active)
A549
  GI50: < 0.017 µM (active)
MDA-MB-435
  GI50: < 0.0144 µM (active)
UACC-62
  GI50: 0.0446 µM (active)
BT-549
  GI50: 0.157 µM (active)
ACHN
  GI50: 0.017 µM (active)
OVCAR-3
  GI50: < 0.0157 µM (active)
KM12
  GI50: 0.027 µM (active)
SK-MEL-2
  GI50: 0.0197 µM (active)
SR
  GI50: < 0.01 µM (active)
Hs-578T
  GI50: < 0.0386 µM (active)
NCI-H226
  GI50: 0.0248 µM (active)
T47D
  GI50: 0.0387 µM (active)
SK-MEL-5
  GI50: < 0.0181 µM (active)
786-0
  GI50: < 0.0126 µM (active)
NCI-H23
  GI50: < 0.0121 µM (active)
HL-60
  GI50: < 0.0139 µM (active)
MDA-MB-231
  GI50: < 0.0129 µM (active)
LOX IMVI
  GI50: < 0.0148 µM (active)
MCF7
  GI50: 0.0102 µM (active)
EKVX
  GI50: < 0.017 µM (active)
OVCAR-4
  GI50: < 0.0129 µM (active)
RXF 393
  GI50: 0.0138 µM (active)
CAKI-1
  GI50: 0.0385 µM (active)
SK-OV-3
  GI50: 0.0424 µM (active)
SNB-75
  GI50: 0.0173 µM (active)
M14
  GI50: 0.0224 µM (active)
A498
  GI50: 0.021 µM (active)
NCI-H460
  GI50: < 0.0121 µM (active)
NCI/ADR-RES
  GI50: 0.91 µM (active)
SN12C
  GI50: < 0.0208 µM (active)
SF-268
  GI50: < 0.016 µM (active)
Malme-3M
  GI50: 0.0461 µM (active)
HOP-92
  GI50: < 0.0156 µM (active)
OVCAR-5
  GI50: < 0.0148 µM (active)
HCT-116
  GI50: < 0.0161 µM (active)
MOLT-4
  GI50: < 0.01 µM (active)

## CC(=N/NC(=S)Nc1c(C)n(C)n(-c2ccccc2)c1=O)/C(C)=N\NC(=S)Nc1c(C)n(C)n(-c2ccccc2)c1=O
HOP-62
  GI50: > 100 µM (inactive)
TK-10
  GI50: > 100 µM (inactive)
HCC 2998
  GI50: > 100 µM (inactive)
DU-145
  GI50: > 100 µM (inactive)
UACC-257
  GI50: > 100 µM (inactive)
SF-539
  GI50: > 100 µM (inactive)
HCT-15
  GI50: > 100 µM
SF-295
  GI50: > 100 µM (inactive)
U-251
  GI50: > 100 µM (inactive)
SW-620
  GI50: > 100 µM (inactive)
OVCAR-8
  GI50: > 100 µM (inactive)
SNB-19
  GI50: > 100 µM (inactive)
NCI-H522
  GI50: > 100 µM (inactive)
PC-3
  GI50: > 100 µM (inactive)
COLO 205
  GI50: > 100 µM (inactive)
UO-31
  GI50: > 100 µM (inactive)
HT-29
  GI50: > 100 µM (inactive)
A549
  GI50: > 100 µM (inactive)
MDA-MB-435
  GI50: > 100 µM (inactive)
UACC-62
  GI50: > 100 µM (inactive)
BT-549
  GI50: > 100 µM (inactive)
ACHN
  GI50: > 100 µM (inactive)
OVCAR-3
  GI50: > 100 µM (inactive)
KM12
  GI50: > 100 µM (inactive)
SK-MEL-2
  GI50: > 100 µM (inactive)
SR
  GI50: > 100 µM (inactive)
Hs-578T
  GI50: > 100 µM (inactive)
NCI-H226
  GI50: > 100 µM (inactive)
T47D
  GI50: > 100 µM (inactive)
SK-MEL-5
  GI50: > 100 µM (inactive)
786-0
  GI50: > 100 µM (inactive)
NCI-H23
  GI50: > 100 µM (inactive)
HL-60
  GI50: > 100 µM (inactive)
MDA-MB-231
  GI50: > 100 µM (inactive)
EKVX
  GI50: > 100 µM (inactive)
OVCAR-4
  GI50: > 100 µM (inactive)
RXF 393
  GI50: > 100 µM (inactive)
CAKI-1
  GI50: > 100 µM (inactive)
SK-OV-3
  GI50: > 100 µM (inactive)
SNB-75
  GI50: > 100 µM (inactive)
M14
  GI50: > 100 µM (inactive)
A498
  GI50: > 100 µM (inactive)
NCI-H460
  GI50: > 100 µM (inactive)
NCI/ADR-RES
  GI50: > 100 µM (inactive)
SF-268
  GI50: > 100 µM (inactive)
Malme-3M
  GI50: > 100 µM (inactive)
HOP-92
  GI50: > 100 µM (inactive)
OVCAR-5
  GI50: > 100 µM (inactive)
HCT-116
  GI50: > 100 µM (inactive)
MOLT-4
  GI50: > 100 µM (inactive)

## Cc1ccccc1[P+](C)(c1ccccc1C)c1ccccc1C
HOP-62
  GI50: 23.9 µM (inactive)
SK-MEL-28
  GI50: 11.6 µM (inactive)
TK-10
  GI50: 8.26 µM (inactive)
HCC 2998
  GI50: 2.77 µM (inactive)
DU-145
  GI50: 29.2 µM (inactive)
UACC-257
  GI50: 2.58 µM (inactive)
SF-539
  GI50: 16.5 µM (inactive)
HCT-15
  GI50: 19.9 µM
RPMI-8226
  GI50: 1.21 µM (inactive)
U-251
  GI50: 6.3 µM (inactive)
SW-620
  GI50: 13.6 µM (inactive)
OVCAR-8
  GI50: 15 µM (inactive)
SNB-19
  GI50: 8.69 µM (inactive)
NCI-H522
  GI50: 5.24 µM (inactive)
PC-3
  GI50: 14.3 µM (inactive)
COLO 205
  GI50: 10.6 µM (inactive)
UO-31
  GI50: 17.7 µM (inactive)
IGROV-1
  GI50: 14.9 µM (inactive)
CCRF-CEM
  GI50: 0.0333 µM (active)
HT-29
  GI50: 5.85 µM (inactive)
A549
  GI50: 13.1 µM (inactive)
MDA-MB-435
  GI50: 4.54 µM (inactive)
UACC-62
  GI50: 5.79 µM (inactive)
BT-549
  GI50: 7.48 µM (inactive)
ACHN
  GI50: 15.8 µM (inactive)
OVCAR-3
  GI50: 7.94 µM (inactive)
SK-MEL-2
  GI50: 13.4 µM (inactive)
Hs-578T
  GI50: 17.8 µM (inactive)
NCI-H226
  GI50: 14.6 µM (inactive)
T47D
  GI50: 3.06 µM (inactive)
SK-MEL-5
  GI50: 4.84 µM (inactive)
786-0
  GI50: 24.8 µM (inactive)
NCI-H23
  GI50: 10.3 µM (inactive)
MDA-MB-231
  GI50: 12.6 µM (inactive)
LOX IMVI
  GI50: 14.1 µM (inactive)
MCF7
  GI50: 14 µM (inactive)
EKVX
  GI50: 5.07 µM (inactive)
OVCAR-4
  GI50: 2.96 µM (inactive)
RXF 393
  GI50: 36.9 µM (inactive)
SK-OV-3
  GI50: 33.2 µM (inactive)
SNB-75
  GI50: 12.6 µM (inactive)
M14
  GI50: 7.46 µM (inactive)
A498
  GI50: 18.5 µM (inactive)
NCI-H460
  GI50: 20 µM (inactive)
NCI/ADR-RES
  GI50: 25.5 µM (inactive)
SN12C
  GI50: 14.7 µM (inactive)
SF-268
  GI50: 34.8 µM (inactive)
Malme-3M
  GI50: 8.18 µM (inactive)
HOP-92
  GI50: 12.7 µM (inactive)
OVCAR-5
  GI50: 13.6 µM (inactive)
HCT-116
  GI50: 6.79 µM (inactive)
